Experimental findings from ChEMBL document CHEMBL5050851, “Compounds that induce ferroptic cell death” (2020) are described below.

The structures appear in SMILES notation.

In one test the test system is HCT-116. In words: Antiproliferative activity against human HCT-116 cells assessed as cell death after 72 hrs by Alamar blue viability assay. It is filed as functional, cell-based. To be noted: HCT-116, 72 h. On the technique in general: Resazurin is reduced to fluorescent resorufin, in cell work by metabolically active cells.
A further test concerns ES-2. Briefly: Antiproliferative activity against human ES2 cells assessed as cell death after 72 hrs by Alamar blue viability assay. It is filed as functional, cell-based. The conditions noted are these: ES-2, 72 h.

As a reminder, the IC50 is the midpoint of a concentration-inhibition curve. As for `CC1=CC(C)=[N+]2C1=Cc1ccc(CCC(=O)NCCCn3cc(CN4C(=O)C5CC=C([C@@H]6C[C@@H](OC(=O)CCl)[C@]7(C)[C@H](C)CC[C@]8(C[C@H](O)C(=O)[C@]87O)[C@H]6C)CC5C4=O)nn3)n1[B-]2(F)F` (some centres undefined), the IC50 came to 14.2 µM in the test on HCT-116 and 5.3 µM with ES-2.
The corresponding values for `CO[C@H]1C[C@@]23CC[C@@H](C)[C@@](C)([C@H](OC(=O)CCl)C[C@@H](C4=CCn5c(=O)n(-c6ccccc6)c(=O)n5C4)[C@@H]2C)[C@]3(O)C1=O` are 3 µM and 1.9 µM.
Consider `CO[C@H]1C[C@@]23CC[C@@H](C)[C@@](C)([C@H](OC(=O)C(Cl)Cl)C[C@@H](C4=CCn5c(=O)n(-c6ccccc6)c(=O)n5C4)[C@@H]2C)[C@]3(O)C1=O`, for which the IC50 in the test with HCT-116 and in the test with ES-2 was greater than 100 µM throughout.
Turning to `CO[C@H]1C[C@@]23CC[C@@H](C)[C@@](C)([C@H](OC(C)=O)C[C@@H](C4=CCn5c(=O)n(-c6ccccc6)c(=O)n5C4)[C@@H]2C)[C@]3(O)C1=O`, the IC50 in the test with HCT-116 and in the test on ES-2 was greater than 100 µM throughout.
As for `C[C@@H]1CC[C@@]23C[C@H](O)C(=O)[C@@]2(O)[C@]1(C)[C@H](OC(=O)CF)C[C@@H](C1=CCn2c(=O)n(-c4ccccc4)c(=O)n2C1)[C@@H]3C`, the IC50 was greater than 100 µM in the test on HCT-116 and 34 µM in the test with ES-2.
The corresponding values for `CO[C@H]1C[C@@]23CC[C@@H](C)[C@@](C)([C@H](OC(=O)c4ccco4)C[C@@H](C4=CCn5c(=O)n(-c6ccccc6)c(=O)n5C4)[C@@H]2C)[C@]3(O)C1=O` are greater than 100 µM and greater than 100 µM.
On the same counts, the results for `C#CCN1C(=O)C2CC=C([C@@H]3C[C@@H](OC(=O)CCl)[C@]4(C)[C@H](C)CC[C@]5(C[C@H](O)C(=O)[C@]54O)[C@H]3C)CC2C1=O` (some centres undefined) are 10.5 µM and 4 µM.
